Patent US20230151003A1, “COMPOUNDS AND METHODS OF USE” (Exelixis, Inc., priority 2020, published 2023)

What was measured:
AXL = biological target: T1, AXL (Homo sapiens, UniProt P30530); assay: AXL autophosphorylation ELISA in A-172 cells; type: cell-based; conditions: Table 3 Cellular Activities, Gas6-stimulated, phospho-AXL ELISA
T1 construct: endogenous in cells; host or cells: A-172 glioblastoma cells (ATCC #CRL-1620)
T1 sequence (P30530 26-894): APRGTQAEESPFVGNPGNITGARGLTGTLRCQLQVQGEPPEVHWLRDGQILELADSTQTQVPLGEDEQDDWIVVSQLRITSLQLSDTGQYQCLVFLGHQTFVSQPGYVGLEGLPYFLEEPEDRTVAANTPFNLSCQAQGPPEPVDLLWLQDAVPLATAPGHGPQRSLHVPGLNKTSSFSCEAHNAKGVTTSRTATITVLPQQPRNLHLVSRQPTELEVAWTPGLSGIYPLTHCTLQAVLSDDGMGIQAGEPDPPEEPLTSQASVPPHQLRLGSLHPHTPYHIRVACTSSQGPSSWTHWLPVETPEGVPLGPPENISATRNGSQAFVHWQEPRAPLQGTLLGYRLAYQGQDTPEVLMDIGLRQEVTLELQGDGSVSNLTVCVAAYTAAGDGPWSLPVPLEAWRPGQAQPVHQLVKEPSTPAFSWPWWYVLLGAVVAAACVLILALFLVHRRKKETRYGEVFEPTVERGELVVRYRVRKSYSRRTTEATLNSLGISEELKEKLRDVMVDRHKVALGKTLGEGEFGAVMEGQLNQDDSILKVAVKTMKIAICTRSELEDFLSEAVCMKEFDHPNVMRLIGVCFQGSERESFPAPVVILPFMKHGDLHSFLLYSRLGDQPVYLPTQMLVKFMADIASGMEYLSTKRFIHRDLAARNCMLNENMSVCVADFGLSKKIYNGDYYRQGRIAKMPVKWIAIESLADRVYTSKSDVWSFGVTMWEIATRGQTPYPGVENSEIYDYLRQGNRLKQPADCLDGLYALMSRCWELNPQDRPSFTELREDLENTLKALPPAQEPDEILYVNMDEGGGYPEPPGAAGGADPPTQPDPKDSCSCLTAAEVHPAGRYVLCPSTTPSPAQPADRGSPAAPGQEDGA
Experimental: A-172 glioblastoma cells (ATCC #CRL-1620) were seeded at 2.5×10^5 cells/well onto 24-well plates (Greiner #662165), in DMEM (Thermo Fisher #11995-040) containing 10% FBS (Thermo Fisher #26140-079), 1% MEM NEAA (Thermo Fisher #11140-050), 1% GlutaMax (Thermo Fisher #35050-061), and 1% Penicillin Streptomycin (Thermo Fisher #15140-122). A-172 cells were incubated at 37° C., 5% CO2 for 24 h and then starved for 24 h in serum-free medium. Test compounds were serially diluted to produce an 8-point dose curve in fresh serum-free medium to a final concentration of 0.3% DMSO (vehicle) and added to the cells and incubated for 1 h. Cells were then stimulated with 1 μg/mL recombinant human Gas6 (R&D Systems #885-GSB-500) for 15 min, washed with cold PBS, and immediately lysed with 150 μL of cold 1× lysis buffer [20 mM Tris, 137 mM sodium chloride, 2 mM EDTA, 10% glycerol, 1% NP-40 alternative, 1 mM activated sodium orthovanadate, 1 mM PefaBloc SC (Sigma-Aldrich #11429868001), protease/phosphatase inhibitor tablet (Thermo Fisher #A32959)]. Lysates were collected and 100 μL/well added into the human phospho-AXL DuoSet IC ELISA (R&D Systems #DYC2228-2). Assay was performed according to manufacturer's instructions and sample phospho-AXL concentrations were extrapolated using human phospho-AXL control (R&D Systems #841645) as a standard. Positive control wells (100% activity) contained Gas6-stimulated, DMSO-treated cell lysates. Negative control wells (0% activity) contained Gas6-stimulated, reference inhibitor-treated cell lysates. IC50 values were calculated by nonlinear regression analysis using a 4-parameter logistic curve fit in ActivityBase XE (IDBS).

Met = Met (Homo sapiens, UniProt P08581); assay: Met autophosphorylation ELISA in PC-3 cells; type: cell-based; set-up: endogenous in cells; host or cells: PC-3 prostate cancer cells (ATCC #CRL-1435); conditions: Table 3 Cellular Activities, HGF-stimulated, phospho-Met ELISA, read-out: c-Met IC50
How it was run: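 IC50 derived by 4-parameter logistic regression of phospho-Met (panTyr) sandwich ELISA signal, scaled between HGF-stimulated DMSO and reference-inhibitor lysates. PC-3 cells, serum-starved 3 h, received an 8-point compound series (0.3% DMSO) for 1 h before 10 min stimulation with 100 ng/mL human HGF.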

Sequence of Met (P08581 25-1390): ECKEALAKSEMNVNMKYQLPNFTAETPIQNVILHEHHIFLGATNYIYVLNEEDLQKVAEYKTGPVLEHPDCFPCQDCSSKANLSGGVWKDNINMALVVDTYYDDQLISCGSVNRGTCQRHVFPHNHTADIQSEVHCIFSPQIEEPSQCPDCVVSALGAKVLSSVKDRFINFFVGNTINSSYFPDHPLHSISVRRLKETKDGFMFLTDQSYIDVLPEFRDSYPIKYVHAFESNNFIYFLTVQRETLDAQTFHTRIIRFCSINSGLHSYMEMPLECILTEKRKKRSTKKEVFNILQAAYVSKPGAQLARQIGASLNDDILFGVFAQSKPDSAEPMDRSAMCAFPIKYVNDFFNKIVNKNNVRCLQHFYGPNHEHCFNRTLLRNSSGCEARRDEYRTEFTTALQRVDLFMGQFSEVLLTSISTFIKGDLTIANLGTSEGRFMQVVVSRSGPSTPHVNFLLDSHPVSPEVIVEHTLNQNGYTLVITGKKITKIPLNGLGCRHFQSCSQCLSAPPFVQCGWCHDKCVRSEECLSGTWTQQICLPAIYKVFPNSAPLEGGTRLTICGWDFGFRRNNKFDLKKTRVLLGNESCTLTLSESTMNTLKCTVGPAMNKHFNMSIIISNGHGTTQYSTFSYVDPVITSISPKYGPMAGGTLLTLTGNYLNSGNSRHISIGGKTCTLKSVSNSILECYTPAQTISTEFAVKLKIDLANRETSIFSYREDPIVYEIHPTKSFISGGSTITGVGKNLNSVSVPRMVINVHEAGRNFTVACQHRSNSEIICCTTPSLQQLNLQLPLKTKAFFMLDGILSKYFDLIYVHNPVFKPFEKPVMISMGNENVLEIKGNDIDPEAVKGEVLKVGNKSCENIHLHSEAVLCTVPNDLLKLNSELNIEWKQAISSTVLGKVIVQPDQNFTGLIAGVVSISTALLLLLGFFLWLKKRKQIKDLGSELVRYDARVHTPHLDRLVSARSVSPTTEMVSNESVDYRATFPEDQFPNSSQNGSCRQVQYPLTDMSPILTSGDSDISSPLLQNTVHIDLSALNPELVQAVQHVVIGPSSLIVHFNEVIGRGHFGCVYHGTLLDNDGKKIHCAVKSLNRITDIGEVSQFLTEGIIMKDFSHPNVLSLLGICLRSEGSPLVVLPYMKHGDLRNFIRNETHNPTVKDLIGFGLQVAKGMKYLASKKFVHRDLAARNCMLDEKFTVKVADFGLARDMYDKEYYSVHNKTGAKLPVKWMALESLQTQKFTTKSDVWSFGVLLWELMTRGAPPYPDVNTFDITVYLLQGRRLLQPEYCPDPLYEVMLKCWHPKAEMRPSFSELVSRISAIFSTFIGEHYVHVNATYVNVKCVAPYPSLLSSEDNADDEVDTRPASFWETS

IC50 (AXL)	IC50 (Met)	SMILES
≤ 100 nM	≤ 100 nM	COc1cc2nccc(Oc3ccc(NC(=O)c4ccc(C)n(-c5cccnn5)c4=O)cc3F)c2nc1OC [Compound 234, N-[4-[(6,7-Dimethoxy-1,5-naphthyridin-4-yl)oxy]-3-fluorophenyl]-6-methyl-2-oxo-1-pyridazin-3-ylpyridine-3-carboxamide]
≤ 100 nM	≤ 100 nM	COc1cc2nccc(Oc3ccc(NC(=O)c4ccc(C)n(-c5cccnc5)c4=O)cc3F)c2nc1OC [Compound 222, N-[4-[(6,7-Dimethoxy-1,5-naphthyridin-4-yl)oxy]-3-fluorophenyl]-6-methyl-2-oxo-1-pyridin-3-ylpyridine-3-carboxamide]
≤ 100 nM	300 to 1000 nM	COc1cc2nccc(Oc3ccc(NC(=O)c4cc(C(C)=O)c(C)n(-c5ccco5)c4=O)cc3)c2nc1OC [Compound 237, 5-Acetyl-N-[4-[(6,7-dimethoxy-1,5-naphthyridin-4-yl)oxy]phenyl]-1-(furan-2-yl)-6-methyl-2-oxopyridine-3-carboxamide]
≤ 100 nM	≤ 100 nM	COc1cc2nccc(Oc3ccc(NC(=O)c4ccc(C)n(-c5cc[n+]([O-])cc5)c4=O)cc3F)c2nc1OC [Compound 231, N-[4-[(6,7-Dimethoxy-1,5-naphthyridin-4-yl)oxy]-3-fluorophenyl]-6-methyl-1-(1-oxidopyridin-1-ium-4-yl)-2-oxopyridine-3-carboxamide]
≤ 100 nM	≤ 100 nM	COc1cc2nccc(Oc3ccc(NC(=O)c4c5n(cc(-c6ccc(C)s6)c4=O)CCOC5)cc3)c2nc1OC [Compound 305, N-[4-[(6,7-Dimethoxy-1,5-naphthyridin-4-yl)oxy]phenyl]-7-(5-methylthiophen-2-yl)-8-oxo-3,4-dihydro-1H-pyrido[2,1-c][1,4]oxazine-9-carboxamide]
≤ 100 nM	≤ 100 nM	COc1cc2nccc(Oc3ccc(NC(=O)c4ccc(C)n(-c5ccc(F)cn5)c4=O)cc3)c2nc1OC [Compound 44, N-[4-[(6,7-Dimethoxy-1,5-naphthyridin-4-yl)oxy]phenyl]-1-(5-fluoropyridin-2-yl)-6-methyl-2-oxopyridine-3-carboxamide]
≤ 100 nM	≤ 100 nM	COc1cc2nccc(Oc3ccc(NC(=O)c4c5n(c(C)c(-c6ccsc6)c4=O)CCOC5)cc3F)c2nc1OC [Compound 307, N-[4-[(6,7-Dimethoxy-1,5-naphthyridin-4-yl)oxy]-3-fluorophenyl]-6-methyl-8-oxo-7-thiophen-3-yl-3,4-dihydro-1H-pyrido[2,1-c][1,4]oxazine-9-carboxamide]
≤ 100 nM	≤ 100 nM	COc1cc2nccc(Oc3ccc(NC(=O)c4c5n(cc(-c6ccoc6)c4=O)CCOC5)cc3F)c2nc1OC [Compound 306, N-[4-[(6,7-Dimethoxy-1,5-naphthyridin-4-yl)oxy]-3-fluorophenyl]-7-(furan-3-yl)-8-oxo-3,4-dihydro-1H-pyrido[2,1-c][1,4]oxazine-9-carboxamide]
≤ 100 nM	≤ 100 nM	COc1cc2nccc(Oc3ccc(NC(=O)c4c5n(cc(-c6cccs6)c4=O)CCOC5)cc3F)c2nc1OC [Compound 309, N-[4-[(6,7-Dimethoxy-1,5-naphthyridin-4-yl)oxy]-3-fluorophenyl]-8-oxo-7-thiophen-2-yl-3,4-dihydro-1H-pyrido[2,1-c][1,4]oxazine-9-carboxamide]
≤ 100 nM	≤ 100 nM	COc1cc2nccc(Oc3ccc(NC(=O)c4ccc(C)n(-c5ccnc(O)c5)c4=O)cc3F)c2nc1OC [Compound 232, N-[4-[(6,7-Dimethoxy-1,5-naphthyridin-4-yl)oxy]-3-fluorophenyl]-1-(2-hydroxypyridin-4-yl)-6-methyl-2-oxopyridine-3-carboxamide]
≤ 100 nM	300 to 1000 nM	COc1cc2nccc(Oc3ccc(NC(=O)c4c(C)n(C)c(C)c(-c5coc6ccccc56)c4=O)cc3F)c2nc1OC [Compound 262, 5-(1-Benzofuran-3-yl)-N-[4-[(6,7-dimethoxy-1,5-naphthyridin-4-yl)oxy]-3-fluorophenyl]-1,2,6-trimethyl-4-oxopyridine-3-carboxamide]

The next lines start with the compound.

SMILES	IC50 (AXL)	IC50 (Met)
COCCOc1cc2nccc(Oc3ccc(NC(=O)c4c(C)n(C)c(C)c(-c5coc6ccccc56)c4=O)cc3F)c2nc1OC [Compound 264, 5-(1-Benzofuran-3-yl)-N-[3-fluoro-4-[[6-methoxy-7-(2-methoxyethoxy)-1,5-naphthyridin-4-yl]oxy]phenyl]-1,2,6-trimethyl-4-oxopyridine-3-carboxamide]	≤ 100 nM	≤ 100 nM
COc1cc2nccc(Oc3ccc(NC(=O)c4cccn(-c5ccncc5)c4=O)cc3F)c2nc1OC [Compound 229, N-[4-[(6,7-Dimethoxy-1,5-naphthyridin-4-yl)oxy]-3-fluorophenyl]-2-oxo-1-pyridin-4-ylpyridine-3-carboxamide]	≤ 100 nM	≤ 100 nM
COc1cc2nccc(Oc3ccc(NC(=O)c4c(C)ncc(-c5cccnc5)c4O)cc3F)c2nc1OC [Compound 228, N-[4-[(6,7-Dimethoxy-1,5-naphthyridin-4-yl)oxy]-3-fluorophenyl]-4-hydroxy-2-methyl-5-pyridin-3-ylpyridine-3-carboxamide]	≤ 100 nM	≤ 100 nM
COc1cnc2c(Oc3ccc(NC(=O)c4c(C)ncc(-c5ccccn5)c4O)cc3F)ccnc2c1 [Compound 70, N-[3-Fluoro-4-[(7-methoxy-1,5-naphthyridin-4-yl)oxy]phenyl]-4-hydroxy-2-methyl-5-pyridin-2-ylpyridine-3-carboxamide]	≤ 100 nM	≤ 100 nM
COCCOc1cc2nccc(Oc3ccc(NC(=O)c4c(C)n(C)c(C)c(-c5cc6ccccc6o5)c4=O)cc3F)c2nc1OC [Compound 263, 5-(1-Benzofuran-2-yl)-N-[3-fluoro-4-[[6-methoxy-7-(2-methoxyethoxy)-1,5-naphthyridin-4-yl]oxy]phenyl]-1,2,6-trimethyl-4-oxopyridine-3-carboxamide]	≤ 100 nM	300 to 1000 nM
COc1cc2nccc(Oc3ccc(NC(=O)c4c(C)n(C)c(C)c(-c5cc6ccccc6o5)c4=O)cc3F)c2nc1OC [Compound 261, 5-(1-Benzofuran-2-yl)-N-[4-[(6,7-dimethoxy-1,5-naphthyridin-4-yl)oxy]-3-fluorophenyl]-1,2,6-trimethyl-4-oxopyridine-3-carboxamide]	≤ 100 nM	300 to 1000 nM
COc1cc2nccc(Oc3ccc(NC(=O)c4cnc(C)c(-c5ccco5)c4O)cc3)c2cc1OC [Compound 258, N-[4-(6,7-Dimethoxyquinolin-4-yl)oxyphenyl]-5-(furan-2-yl)-4-hydroxy-6-methylpyridine-3-carboxamide]	≤ 100 nM	≤ 100 nM
COc1cc2nccc(Oc3ccc(NC(=O)c4nccn(-c5ccc(F)cn5)c4=O)cc3F)c2nc1OC [Compound 246, N-[4-[(6,7Dimethoxy-1,5-naphthyridin-4-yl)oxy]-3-fluorophenyl]-4-(5-fluoropyridin-2-yl)-3-oxopyrazine-2-carboxamide]	≤ 100 nM	≤ 100 nM
